The target of the assay is T1, KDM4EJmjC (M1–Q337) (Homo sapiens, UniProt B2RXH2).
T1 construct: We chose human KDM4EJmjC (M1–Q337); made in house
T1 sequence (B2RXH2 1-337): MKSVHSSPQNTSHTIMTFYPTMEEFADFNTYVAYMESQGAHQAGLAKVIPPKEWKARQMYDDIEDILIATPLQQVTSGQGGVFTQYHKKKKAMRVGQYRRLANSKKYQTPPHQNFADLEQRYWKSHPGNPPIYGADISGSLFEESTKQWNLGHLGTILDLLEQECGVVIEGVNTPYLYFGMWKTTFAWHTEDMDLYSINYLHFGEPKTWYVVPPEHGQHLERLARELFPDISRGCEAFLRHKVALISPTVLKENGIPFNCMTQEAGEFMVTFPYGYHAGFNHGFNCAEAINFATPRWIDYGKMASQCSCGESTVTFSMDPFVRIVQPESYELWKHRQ
Description: MALDI-TOF demethylation assay, KDM4EJmjC. Format: biochemical. The procedure: Reactions were monitored using MALDI-TOF mass spectrometry (Fig. 5b–d).
A Bruker Daltonics MALDI-TOF/TOF AutoflexSpeed machine and Bruker MTP 384 target plates (polished steel BC, Part: 8280781) were used. The machine was controlled using Flex control (v. 3.4 build 135.10) and Compass for flex series (v. 1.4) software. Measurements were in the positive ion mode with the reflectron mode enabled. Incubations employed ProxiPlate-384™ (Perkin Elmer) plates into which was pipetted a solution of [H3_1-15K9me3 (10.0 µM), (+)-sodium L-ascorbate (1.0 mM), (NH4)2Fe(II)(SO4)2 (100 µM), di-sodium 2-oxoglutarate (200 µM) in buffer (HEPES (50 mM)) in MilliQ (pH 7.5)] (5.0 µL) using ClipTip™ (Thermo Scientific™) pipette tips and E1-ClipTip™ (Thermo Scientific™). The enzyme solution [KDM4EJmjC (1.0 µM) in HEPES (50 mM)] (5.0 µL) was added to initiate reaction at 37 °C. Reactions were quenched with formic acid in water (2%, 5.0 µL). Samples were then spotted onto a MALDI-TOF target plate (1.0 µL), MALDI matrix [sat. sol. α-cyano-4-hydroxy-cinnamic acid (10 mg·mL^−1) in {trifluoro acetic acid, acetonitrile and MilliQ (0.1:50:50)}] (1.0 µL) was added, mixed, and dried in air. Samples were then analysed by MALDI-TOF. Specific experiments were supplemented with catalase from bovine liver (C3155-50MG, Merck) (5.0 µM), bovine albumin serum (BSA, Perkin Elmer, CR84-100, DTPA purified 7.5%) (5.0 µM), or Tris(carboxyethyl)phosphine hydrochloride salt (TCEP, M02624, Fluorochem) (500 µM).

Turning to “ARTKQTAR(KPme3)STGGKA [H3KP9me3, histone H3 residues 1–15 with trimethylphosphonium lysine analogue at position 9]”, the “demethylation in competition assay” value (H3K9me3 (5.0 µM) and H3KP9me3 (5.0 µM) in the same vessel, KDM4EJmjC 0.5 µM) was “no evidence that H3KP9me3 was converted to H3KP9me2 or H3KP9me2O”. Besides, the “relative substrate quality / rate” value (H3K9me3 versus H3KP9me3) was “demethylation rate is significantly slower for H3KP9me3 than for H3K9me3”. Moreover, the “demethylation in omission controls” value (H3KP9me3: without KDM4EJmjC, Asc, Fe(II) or 2OG, H3K9me3: without Asc and Fe(II), 1 hr) is “little or no H3KP9me2 or H3KP9me2O formation”. For the same substance, the “demethylation” value (KDM4EJmjC 0.5 µM (H3KP9me3 also at 5.0 µM enzyme), peptide 5.0 or 6.0 µM, Asc 500 µM, Fe(II) 50 µM, 2OG 100 µM) is reported as “only undergo a single demethylation (−14 Da) to give H3KP9me2”. Where the note is “KDM4EJmjC 0.5 µM, catalase 5.0 µM, BSA 5.0 µM”, the “effect of catalase with or without Asc or BSA” value is on record as “did not substantially alter the amounts of H3KP9me2 or H3KP9me2O”. Besides, where the note is “TCEP as a reducing agent, KDM4EJmjC 0.5 µM”, the “yield with TCEP rather than Asc” value is “slightly increased yields of H3KP9me2 and H3KP9me2O”. Also, where the note is “stoichiometric: KDM4EJmjC 5.0 µM, peptide 5.0 µM”, the “product formation” value is “faster H3KP9me2 and H3KP9me2O product formation, but no evidence for H3KP9me1 or H3KP9 formation”.

(Values after publication PMC7613515, “Reading and erasing of the phosphonium analogue of trimethyllysine by epigenetic proteins” (Communications Chemistry, 2022).)
